Measurements reported in paper PMC6994497, “Structural basis for Glycan-receptor binding by mumps virus hemagglutinin-neuraminidase” (Scientific Reports, 2020).

Molecular target: T1, MuV-HN (Mumps orthorubulavirus, UniProt Q9WAF5)
T1 construct: pHLsec N-terminal secretion signal, C-terminal His6 tag; secreted from HEK293S GnTI(-) cells; Ni-NTA and size exclusion
Experiment: STD NMR
Assay type: binding
Details: deuterated phosphate buffer pH 7.4; reaction mixture after hydrolysis of 1, also free reducing sialic acid

T1 sequence (Q9WAF5 96-582): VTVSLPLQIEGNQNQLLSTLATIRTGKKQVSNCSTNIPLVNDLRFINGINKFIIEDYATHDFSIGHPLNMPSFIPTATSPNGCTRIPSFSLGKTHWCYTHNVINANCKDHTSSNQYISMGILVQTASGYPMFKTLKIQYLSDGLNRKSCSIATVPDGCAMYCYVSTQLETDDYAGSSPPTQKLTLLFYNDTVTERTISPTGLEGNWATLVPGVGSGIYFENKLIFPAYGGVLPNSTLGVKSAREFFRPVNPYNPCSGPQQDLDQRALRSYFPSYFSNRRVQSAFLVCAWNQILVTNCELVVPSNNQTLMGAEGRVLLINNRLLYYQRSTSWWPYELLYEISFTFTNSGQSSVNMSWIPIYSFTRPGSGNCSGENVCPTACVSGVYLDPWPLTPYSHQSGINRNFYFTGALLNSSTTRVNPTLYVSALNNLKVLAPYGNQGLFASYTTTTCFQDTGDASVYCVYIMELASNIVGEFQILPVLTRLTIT

SMILES: CC(=O)N[C@H]1[C@H]([C@H](O)[C@H](O)CO)OC(O)(C(=O)O)C[C@@H]1O (stereo partly shown) [reducing Sia]
- STD NMR: the protein was able to bind the reducing sialic acid produced during the hydrolysis reaction
